Biological target: human STING WT (Homo sapiens (Human), UniProt Q86WV6)
Test: Human STING WT binding assay (Cisbio HTRF)
Conditions: human STING WT protein 6His-tagged, 3 hours at RT, read-out: hSTING WT binding IC50
Protocol: Cisbio Bioassays' human STING WT binding assay (#64BDSTGPEG & 64BDSTGPEH, Cisbio) is for quantitative measurement of human STING WT ligand using HTRF® technology.
Negative control: Dispense 5 μL of diluent into each negative control well. Standard: Dispense 5 μL of each Human STING WT Standard 2′3′-cGAMP (Std 0-Std 7) into each standard well. Compound: Dispense 5 μL of compound into each compound well.
Negative control: Add 5 μL of detection buffer to all wells. Other wells: Add 5 μL of human STING WT protein 6His-tagged protein to all wells.
Add 10 μL of premixed STING WT ligand d2 reagent and 6His Tb antibody working solution to all wells.
Seal the plate and incubate 3 hours at RT or at Over Night if necessary.
Remove the plate sealer and read on an HTRF® compatible reader (PerkinElmer, USA). Results were analyzed with a two-wavelength signal ratio: intensity (665 nm)/intensity (620 nm).
Fit the data in GraphPad to obtain IC50 values using equation (2)
Y=Bottom+(Top−Bottom)/(1+10^((Log IC50−X)*Hill Slope)) Equation (2): […]
Y is HTRF Ratio and X is compound concentration.

Sequence of human STING WT (Q86WV6 whole entry): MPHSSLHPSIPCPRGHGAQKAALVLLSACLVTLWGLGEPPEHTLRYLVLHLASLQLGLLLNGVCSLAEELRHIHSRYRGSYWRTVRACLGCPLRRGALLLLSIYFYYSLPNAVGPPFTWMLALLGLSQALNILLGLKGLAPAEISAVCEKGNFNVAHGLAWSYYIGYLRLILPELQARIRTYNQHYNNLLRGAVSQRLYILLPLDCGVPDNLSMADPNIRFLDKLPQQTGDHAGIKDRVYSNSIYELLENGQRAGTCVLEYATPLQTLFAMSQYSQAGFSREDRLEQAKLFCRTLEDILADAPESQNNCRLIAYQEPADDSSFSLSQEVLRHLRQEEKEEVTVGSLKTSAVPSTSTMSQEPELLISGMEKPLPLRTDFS

Structure (SMILES) | IC50
COc1cc2c(cc1OCCCOc1c(OC)cc3sc(C(=O)CCC(=O)O)cc3c1F)CN(C(=O)CCC(=O)O)C2 [Example 20, 4-(5-(3-((2-(3-carboxypropanoyl)-4-fluoro-6-methoxybenzo[b]thiophen-5-yl)oxy)propoxy)-6-methoxyisoindolin-2-yl)-4-oxobutanoic Acid] | 0.19 nM
COc1cc2sc(C(=O)[C@H]3C[C@@H]3C(=O)O)cc2cc1OCCCOc1c(OC)cc2c(c1F)CN(C(=O)CCC(=O)O)C2 (relative stereo) [Example 21, trans-2-(5-(3-((2-(3-carboxypropanoyl)-4-fluoro-6-methoxyisoindolin-5-yl)oxy)propoxy)-6-methoxybenzo[b]thiophene-2-carbonyl)cyclopropane-1-carboxylic Acid] | 159 nM
COc1cc2c(cc1OCCCOc1cc3cc(C(=O)NCCC(=O)O)sc3cc1OC)CN(C(=O)CCC(=O)O)C2 [Example 18, 4-(5-(3-((2-((2-carboxyethyl)carbamoyl)-6-methoxybenzo[b]thiophen-5-yl)oxy)propoxy)-6-methoxyisoindolin-2-yl)-4-oxobutanoic Acid] | 4.59 nM
COc1cc2c(cc1OCCCOc1c(OC)cc3sc(C(=O)C[C@H](C)C(=O)O)cc3c1F)CN(C(=O)C[C@H](C)C(=O)O)C2 [Example 6, Sodium (S)-4-(5-(3-((2-((S)-3-carboxylatobutanoyl)-4-fluoro-6-methoxybenzo[b]thiophen-5-yl)oxy)propoxy)-6-methoxyisoindolin-2-yl)-2-methyl-4-oxobutanoate] | 0.36 nM
COc1cc2c(nc1OCCCOc1nc3cc(C(=O)CCC(=O)O)sc3cc1OC)CN(C(=O)CCC(=O)O)C2 [Example 11, 4-(5-(3-((6-(3-carboxypropanoyl)-3-methoxy-6,7-dihydro-5H-pyrrolo[3,4-b]pyridin-2-yl)oxy)propoxy)-6-methoxythieno[3,2-b]pyridin-2-yl)-4-oxobutanoic Acid] | 2.54 nM
COc1cc2c(c(F)c1OCCCOc1c(OC)cc3sc(C(=O)C[C@H](C)C(=O)O)cc3c1F)CN(C(=O)C[C@H](C)C(=O)O)C2 [Example 17, (S)-4-(5-(3-((2-((S)-3-carboxybutanoyl)-4-fluoro-6-methoxybenzo[b]thiophen-5-yl)oxy)propoxy)-4-fluoro-6-methoxyisoindolin-2-yl)-2-methyl-4-oxobutanoic Acid] | 0.19 nM
COc1cc2c(c(Cl)c1OCCCOc1c(OC)cc3sc(C(=O)CCC(=O)O)cc3c1F)CN(C(=O)CCC(=O)O)C2 [Example 2, 4-(5-(3-((2-(3-carboxypropanoyl)-4-chloro-6-methoxyisoindolin-5-yl)oxy)propoxy)-4-fluoro-6-methoxybenzo[b]thiophen-2-yl)-4-oxobutanoic Acid] | 11.4 nM
COc1cc2c(cc1OCCCOc1cc3cc(C(=O)CCC(=O)O)sc3cc1Br)CN(C(=O)CCC(=O)O)C2 [Example 9, 4-(5-(3-((6-bromo-2-(3-carboxypropanoyl)benzo[b]thiophen-5-yl)oxy)propoxy)-6-methoxyisoindolin-2-yl)-4-oxobutanoic Acid] | 2.23 nM
COc1cc2c(cc1OCCCOc1cc3sc(C(=O)CCC(=O)O)cc3nc1OC)CN(C(=O)CCC(=O)O)C2 [Example 15, 4-(5-(3-((2-(3-carboxypropanoyl)-5-methoxythieno[3,2-b]pyridin-6-yl)oxy)propoxy)-6-methoxyisoindolin-2-yl)-4-oxobutanoic Acid] | 92.6 nM
C=C(COc1cc2c(cc1OC)CN(C(=O)CCC(=O)O)C2)COc1cc2cc(C(=O)CCC(=O)O)sc2cc1OC [Example 19, 4-(5-((2-(((2-(3-carboxypropanoyl)-6-methoxybenzo[b]thiophen-5-yl)oxy)methyl)allyl)oxy)-6-methoxyisoindolin-2-yl)-4-oxobutanoic Acid] | 54.6 nM
COc1cc2c(c(F)c1OCCCOc1c(OC)cc3sc(C(=O)CCC(=O)O)cc3c1F)CN(C(=O)CCC(=O)O)C2 [Example 4, 4-(5-(3-((2-(3-carboxypropanoyl)-4-fluoro-6-methoxybenzo[b]thiophen-5-yl)oxy)propoxy)-4-fluoro-6-methoxyisoindolin-2-yl)-4-oxobutanoic Acid] | 0.18 nM
COc1cc2c(cc1OCCCOc1nc3cc(C(=O)CCC(=O)O)sc3cc1OC)CN(C(=O)CCC(=O)O)C2 [Example 8, Sodium 4-(5-(3-((2-(3-carboxylatopropanoyl)-6-methoxyisoindolin-5-yl)oxy)propoxy)-6-methoxythieno[3,2-b]pyridin-2-yl)-4-oxobutanoate] | 0.65 nM
COc1cc2sc(C(=O)CCC(=O)O)cc2cc1OCCCOc1c(OC)cc2c(c1Cl)CN(C(=O)CCC(=O)O)C2 [Example 14, 4-(5-(3-((2-(3-carboxypropanoyl)-4-chloro-6-methoxyisoindolin-5-yl)oxy)propoxy)-6-methoxybenzo[b]thiophen-2-yl)-4-oxobutanoic Acid] | 46.6 nM
COc1cc2c(cc1OCCCOc1cc3cc(C(=O)CCC(=O)O)sc3cc1OC)CN(C(=O)CCC(=O)O)C2 [Example 1, 4-(5-(3-((2-(3-carboxypropanoyl)-6-methoxybenzo[b]thiophen-5-yl)oxy)propoxy)-6-methoxyisoindolin-2-yl)-4-oxobutanoic Acid] | 0.06 nM
COc1cc2sc(C(=O)CCC(=O)O)cc2cc1OCCCOc1c(OC)cc2c(c1F)CN(C(=O)CCC(=O)O)C2 [Example 10, 4-(5-(3-((2-(3-carboxypropanoyl)-4-fluoro-6-methoxyisoindolin-5-yl)oxy)propoxy)-6-methoxybenzo[b]thiophen-2-yl)-4-oxobutanoic Acid] | 0.28 nM
COc1cc2c(cc1OCCCOc1cc3cc(C(=O)C[C@H](C)C(=O)O)sc3cc1OC)CN(C(=O)C[C@H](C)C(=O)O)C2 [Example 5, Sodium (S)-4-(5-(3-((2-((S)-3-carboxylatobutanoyl)-6-methoxybenzo[b]thiophen-5-yl)oxy)propoxy)-6-methoxyisoindolin-2-yl)-2-methyl-4-oxobutanoate] | 0.32 nM
C=C(COc1c(OC)cc2c(c1Cl)CN(C(=O)CCC(=O)O)C2)COc1c(OC)cc2sc(C(=O)CCC(=O)O)cc2c1F [Example 16, 4-(5-((2-(((2-(3-carboxypropanoyl)-4-chloro-6-methoxyisoindolin-5-yl)oxy)methyl)allyl)oxy)-4-fluoro-6-methoxybenzo[b]thiophen-2-yl)-4-oxobutanoic Acid] | > 150 nM
COc1cc2c(c(F)c1OCCCOc1c(OC)cc3sc(C(=O)CCC(=O)O)cc3c1Cl)CN(C(=O)CCC(=O)O)C2 [Example 3, 4-(5-(3-((2-(3-carboxypropanoyl)-4-chloro-6-methoxybenzo[b]thiophen-5-yl)oxy)propoxy)-4-fluoro-6-methoxyisoindolin-2-yl)-4-oxobutanoic Acid] | 8.4 nM

From patent US20240116909A1, “NOVEL COMPOUNDS USEFUL AS STING AGONISTS AND USES THEREOF” (priority 2021, published 2024)
